Experimental findings from US5493007A, “Platelet aggregation inhibitors having high specificity for GPIIBIIIA” (Genentech, Inc., priority 1994, dated 1996) are described below.

Type in all cases: in vivo
Data set [1] concerns Beagle dogs. Description: Bleeding time, dog model. As to conditions: for bleeding time during the infusion: dose printed for 7/46: bolus 125 μg/kg plus 3 μg/kg/min, 7/1 value is a mean. The procedure: (§1) Beagle dogs were premedicated with atropine (3 mg subcutaneously) and anesthetized with intravenous sodium pentobarbital solution (65 mg/ml, to effect, induction and maintenance). The dogs were placed in dorsal recumbency on heating pads, intubated, and placed on oxygen-room air mixture (free breathing). A pulse oximeter was attached and heart rate and oxygen saturation monitored. An indwelling catheter was placed in one cephalic vein through which normal saline drip (for patency) and maintenance anesthetic doses were administered, and in one saphenous vein through which test or control compound was bolused or infused.
At several timepoints bleeding times were measured. The forearm of the dog was closely shaven. A Surgicutt® automatic bleeding time device was employed to make an approximate 1 cm clean incision through the skin. Blood was blotted with the edge of a Whatman's #4 filter paper every 15 seconds. Bleeding time was measured as the time from incision to the last time blood was absorbed by the filter paper.

The subject of data set [2] is New Zealand White rabbits. Description: Rabbit peripheral blood flow (PBF) by observation of ear vessels. Here is the method:
(§2) Catheters are flushed and locked after every sample.
For the experiments summarized in Table 1, PBF was monitored by observation of the condition of the blood vessels in the rabbits' ears, prior to and during the infusion. Normal flow is defined as ears that appear pink to red, with no visible constriction of the major blood vessels. Decreased flow applies to ears that have constricted vessels resulting in cold, pallid ears for up to 40 minutes following the start of the inhibitor infusion.

Data set [3] deals with platelet rich plasma (PRP). In words: Rabbit ex-vivo platelet aggregation (XPA), ADP-induced. As to conditions: Example 1. Here is the method: as §2
300 ml of PRP is placed in a disposable glass cuvette with a stir bar. The cuvette is placed in the temperature regulated light path of a light transmittance aggregometer (Chrono-log) and equilibrated to a 37° C. Baseline transmittance is recorded for 30 seconds, after which […] of ADP (1 mM) is added and the change in transmittance recorded. The maximum change from baseline (dT) is noted for each sample. The extent of inhibition of XPA that is produced by an inhibitor is calculated for each animal as follows: Mean dTs are calculated for the pre and post infusion values, and then, percent inhibition is calculated as (1-dt (post)/ddt (pre))×100.

The subject of data set [4] is platelet rich plasma (PRP). Description: Ex vivo platelet aggregation, dog model. The procedure:
as §1
At each proscribed time point a 5 ml whole blood sample was withdrawn via jugular venipuncture for ex vivo platelet aggregation and complete blood cell count. Manual pressure was applied to the venipuncture site following blood withdrawal to minimize hematoma formation.
Approximately one ml of blood withdrawn at each timepoint was placed on EDTA (purple-top vacutainer) and used to measure the complete blood cell count on a Cell-Dyne 1500 automated hematology analyzer. 3.6 ml of blood withdrawn at each timepoint was placed on a 3.8% sodium citrate (1 part to 9 parts blood) and centrifuged at 12,000 rpm for 4 seconds in an Eppendorf microcentrifuge. The resultant platelet rich plasma (PRP) was pipetted off for use in ex vivo aggregation procedures.
Platelet aggregation was measured in a Payton dual-channel aggregometer. The equipment was calibrated with PRP assigned as 0% light transmission and PPP as 100% light transmission. PRP was allowed to rest at room temperature for 20 minutes following separation from whole blood. […] PRP was incubated at 37° C. in the aggregometer for approximately 5 minutes with the chart recorder on to establish a baseline. […] ADP (1 mM) was added to the PRP and the aggregation response (change in light transmission) recorded. An aliquot of the PRP was used to perform a platelet count on the Cell-Dyne 1500 automated hematology analyzer. [drawing 50] Example 7, Compound 1

Where [5] appears, read: 200 μg/kg bolus plus an infusion of 4.8 μg/kg/min.
Where [6] appears, read: 300 μg/kg bolus plus an infusion of 7.2 μg/kg/min.

“And” between values parts separate entries of the source, which are not always exact repeats. Equal entries are not always repeated. Where a SMILES comes first, the peptide text is derived from it. Bridges are numbered along the chain shown (N, C = ends). [ ]: non-standard residue; d: D form. Aad = N[C@@H](CCCC(=O)O)C(=O)O; Pen = CC(C)(S)[C@H](N)C(=O)O; Orn = NCCC[C@H](N)C(=O)O

For the compound `N=C(N)NCCC[C@H](NC(=O)[C@@H]1CSCC(=O)N[C@H](Cc2ccc(O)cc2)C(=O)N[C@@H](CCCNC(=N)N)C(=O)NCC(=O)N[C@@H](CC(=O)O)C(=O)N1)C(N)=O` [7/1, cyclo-S-acetyl-dTyr--Arg--Gly--Asp--Cys--Arg--NH2] ({CH2CO}-[dY]RGDCR-NH2; thioether N-5), the “bleeding time, preinfusion value” in data set [1] (before infusion (baseline)) amounted to 3 min. Further, in data set [1], the “bleeding time during the infusion” value was found to be 6.25 min. Besides, the “peripheral blood flow, result in words” value in data set [2] is recorded as “no substantial increase in cutaneous bleeding time (1.17 times; dosed to 100% inhibition of platelet aggregation) or decrease in peripheral blood flow”. For the same compound, the “Rabbit % P.A. Inhibition (ex vivo)” value in data set [3] was determined as 100%.
With `N=C(N)NCCC[C@@H]1NC(=O)[C@@H](Cc2ccc(O)cc2)NC(=O)CCC[C@@H](C(=O)N[C@@H](CCCCN)C(N)=O)NC(=O)[C@H](CC(=O)O)NC(=O)CNC1=O` [10/20, cyclo(1-5)dTyr--Arg--Gly--Asp--L-α-aminoadipic acid-Lys--NH2] ([dY]RGD[Aad]K-NH2; lactam N-5), in data set [3], the “Rabbit % P.A. Inhibition (ex vivo)” value was found to be 100%.
The same measure, in the same setting: to `N=C(N)NCCC[C@@H]1NC(=O)[C@@H](Cc2ccc(O)cc2)NC(=O)CSC[C@@H](C(=O)N[C@@H](CCC(N)=O)C(N)=O)NC(=O)[C@H](CC(=O)O)NC(=O)CNC1=O` [7/27, cyclo-S-acetyl-dTyr--Arg--Gly--Asp--Cys--Gln--NH2] ({CH2CO}-[dY]RGDCQ-NH2; thioether N-5) belongs 72% and 99%; to `N=C(N)NCCC[C@@H]1NC(=O)[C@@H](Cc2ccc(O)cc2)NC(=O)C(CCCCN)SC[C@@H](C(=O)O)NC(=O)[C@H](CC(=O)O)NC(=O)CNC1=O` (single isomer, unassigned) [9/10, cyclo-S-2-L-(6-aminocaproyl)-Lys--dTyr--Arg--Gly--Asp--Cys--OH], 100%.
Consider `CC1(C)SCC(=O)N[C@H](Cc2ccc(O)cc2)C(=O)N[C@@H](CCCCN)C(=O)NCC(=O)N[C@@H](CC(=O)O)C(=O)N[C@@H]1C(=O)N[C@@H](CCCNC(=N)N)C(N)=O` [7/16, cyclo-S-acetyl-dTyr--Lys--Gly--Asp--Pen--Arg--NH2] ({CH2CO}-[dY]KGD[Pen]R-NH2; thioether N-5), for which the “peripheral blood flow, result in words” value in data set [2] is reported as “without substantial increased cutaneous bleeding time or decreased peripheral blood flow”.
Turning to `N=C(N)NCCC[C@@H]1NC(=O)[C@@H](Cc2ccc(O)cc2)NC(=O)CSC[C@@H](C(=O)O)NC(=O)[C@H](CC(=O)O)NC(=O)CNC1=O` [7/46, cyclo-S-acetyl-dTyr--Arg--Gly--Asp--Cys--OH] ({CH2CO}-[dY]RGDC-OH; thioether N-5), the “bleeding time during the infusion” value in data set [1] was more than 30 min. Besides, the “inhibition of ex vivo aggregation” value in data set [4] (bolus of 125 μg/kg plus an infusion of 3 μg/kg/min, throughout the infusion period) amounted to 100%. Moreover, in data set [3], the “Rabbit % P.A. Inhibition (ex vivo)” value is 99% and 55%.
Consider `N=C(N)NCCC[C@@H]1NC(=O)[C@@H](Cc2ccc(O)cc2)NC(=O)CSC[C@@H](C(=O)N[C@@H](CCCN)C(N)=O)NC(=O)[C@H](CC(=O)O)NC(=O)CNC1=O` [7/5, cyclo-S-acetyl-dTyr--Arg--Gly--Asp--Cys--Orn--NH2] ({CH2CO}-[dY]RGDC[Orn]-NH2; thioether N-5), for which the “bleeding time, result in words” value in data set [1] (setting [5]) is “minimal prolongation of bleeding”. In data set [4] (setting [5]), the inhibition of aggregation is recorded as more than 90%. Further, the “Rabbit % P.A. Inhibition (ex vivo)” value in data set [3] was 100%.
Regarding `N=C(N)NCCC[C@@H]1NC(=O)[C@@H](Cc2ccc(O)cc2)NC(=O)CSC[C@@H](C(=O)N[C@@H](CCCCN)C(N)=O)NC(=O)[C@H](CC(=O)O)NC(=O)CNC1=O` [7/3, cyclo-S-acetyl-dTyr--Arg--Gly--Asp--Cys--Lys--NH2] ({CH2CO}-[dY]RGDCK-NH2; thioether N-5), in data set [1] (setting [6]), the “bleeding time, result in words” value was “without prolongation of the bleeding time”. Also, the “inhibition of ex vivo aggregation” value in data set [4] (setting [6]) was more than 95%. In addition, the “Rabbit % P.A. Inhibition (ex vivo)” value in data set [3] stood at 97%.
With `CC1(C)SCC(=O)N[C@H](Cc2ccc(O)cc2)C(=O)N[C@@H](CCCCN)C(=O)NCC(=O)N[C@@H](CC(=O)O)C(=O)N[C@@H]1C(=O)N[C@@H](CCCCN)C(N)=O` [7/17, cyclo-S-acetyl-dTyr--Lys--Gly--Asp--Pen--Lys--NH2] ({CH2CO}-[dY]KGD[Pen]K-NH2; thioether N-5), in data set [2], the “peripheral blood flow, result in words” value is recorded as “without substantial increased cutaneous bleeding time or decreased peripheral blood flow”. In data set [3], the “Rabbit % P.A. Inhibition (ex vivo)” value is on record as 100%.
For the compound `N=C(N)NCCC[C@H](NC(=O)[C@H](Cc1ccc(O)cc1)NC(=O)[C@@H]1CSCC(=O)N[C@H](Cc2ccc(O)cc2)C(=O)N[C@@H](CCCNC(=N)N)C(=O)NCC(=O)N[C@@H](CC(=O)O)C(=O)N1)C(N)=O` [7/7, cyclo-S-acetyl-dTyr--Arg--Gly--Asp--Cys--Tyr--Arg--NH2] ({CH2CO}-[dY]RGDCYR-NH2; thioether N-5), the “Rabbit % P.A. Inhibition (ex vivo)” value in data set [3] came out at 98%.
